# Results published in US20140155376A1, “PYRROLOPYRAZINE KINASE INHIBITORS” (Hoffmann-La Roche Inc., priority 2010, published 2014).
# Biological target: T1, JAK3 (recombinant human kinase domain; h-jak3(810-1124)) (Homo sapiens, UniProt P52333)
# T1 construct: h-jak3(810- 1124)-sf9-c; made in house; host or cells: Sf9 insect cells
# Test: Determination of IC50 of Janus Kinase (JAK) inhibition: JAK3, radioactive end-point assay with 33P-ATP
# Assay type: biochemical
# Conditions: JAK3 kinase domain; ATP 1.5 uM, peptide 50 uM, 20 minutes, room temperature, 10% DMSO; read-out: Ic50 h-jak3(810-1124)-sf9-c:no additive
# T1 sequence (P52333 810-1124): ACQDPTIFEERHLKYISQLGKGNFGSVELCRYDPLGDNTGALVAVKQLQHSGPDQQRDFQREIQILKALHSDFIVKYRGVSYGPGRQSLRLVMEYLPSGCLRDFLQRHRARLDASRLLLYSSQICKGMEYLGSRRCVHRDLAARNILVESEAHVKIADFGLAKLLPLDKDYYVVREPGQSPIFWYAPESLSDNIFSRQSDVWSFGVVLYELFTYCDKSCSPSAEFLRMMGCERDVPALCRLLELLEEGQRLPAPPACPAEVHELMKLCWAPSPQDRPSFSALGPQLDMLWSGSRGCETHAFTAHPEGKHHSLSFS
row,IC50 [nM],Structure (SMILES)
1,54.3,"CC[C@H](NC(=O)c1c[nH]c2ncc(C3CC3)nc12)C(C)(C)O [Example I-29, 2-Cyclopropyl-5H-pyrrolo[2,3-b]pyrazine-7-carboxylic acid ((S)-1-ethyl-2-hydroxy-2-methyl-propyl)-amide]"
2,125,"CCC(=O)N[C@@H]1CCc2ccc(Oc3cnc4[nH]cc(C(=O)NC(C)C)c4n3)cc21 [Example I-282, 2-((R)-3-Propionylamino-indan-5-yloxy)-5H-pyrrolo[2,3-b]pyrazine-7-carboxylic acid isopropylamide]"
3,573,"CC(C)NC(=O)c1c[nH]c2ncc(Oc3ccc4c(c3)C(=O)CC4)nc12 [Example I-297, 2-(3-Oxo-indan-5-yloxy)-5H-pyrrolo[2,3-b]pyrazine-7-carboxylic acid isopropylamide]"
4,0.46,"C[C@H](NC(=O)c1c[nH]c2ncc(-c3ccc(C(=O)NCc4cccc(Cl)c4Cl)s3)nc12)C(C)(C)C [Example I-186, 2-[5-(2,3-Dichloro-benzylcarbamoyl)-thiophen-2-yl]-5H-pyrrolo[2,3-b]pyrazine-7-carboxylic acid ((S)-1,2,2-trimethyl-propyl)-amide]"
5,0.32,"C[C@H](NC(=O)c1c[nH]c2ncc(-c3ccc(C(=O)NCc4cccnc4)s3)nc12)C(C)(C)C [Example I-164, 2-{5-[(Pyridin-3-ylmethyl)-carbamoyl]-thiophen-2-yl}-5H-pyrrolo[2,3-b]pyrazine-7-carboxylic acid ((S)-1,2,2-trimethyl-propyl)-amide]"
6,0.32,"Cc1ccc(CNC(=O)c2ccc(-c3cnc4[nH]cc(C(=O)N[C@@H](C)C(C)(C)C)c4n3)s2)cc1 [Example I-184, 2-[5-(4-Methyl-benzylcarbamoyl)-thiophen-2-yl]-5H-pyrrolo[2,3-b]pyrazine-7-carboxylic acid ((S)-1,2,2-trimethyl-propyl)-amide]"
7,0.32,"CCNC(=O)c1ccc(-c2cnc3[nH]cc(C(=O)N[C@@H](C)C(C)(C)C)c3n2)s1 [Example I-155, 2-(5-Ethylcarbamoyl-thiophen-2-yl)-5H-pyrrolo[2,3-b]pyrazine-7-carboxylic acid ((S)-1,2,2-trimethyl-propyl)-amide]"
8,192,"CC(O)CC(C)(C)NC(=O)c1c[nH]c2ncc(C3CC3)nc12 (stereo not drawn) [Example I-12, 2-Cyclopropyl-5H-pyrrolo[2,3-b]pyrazine-7-carboxylic acid (3-hydroxy-1,1-dimethyl-butyl)-amide]"
9,1270,"CCNC(=O)c1c[nH]c2ncc(Oc3ccc4c(c3)[C@H](NC(C)=O)CC4)nc12 [Example I-271, 2-((R)-3-Acetylamino-indan-5-yloxy)-5H-pyrrolo[2,3-b]pyrazine-7-carboxylic acid ethylamide]"
10,415,"CC(C)NC(=O)c1c[nH]c2ncc(Oc3ccc(F)cc3F)nc12 [Example I-132, 2-(2,4-Difluoro-phenoxy)-5H-pyrrolo[2,3-b]pyrazine-7-carboxylic acid isopropylamide]"
11,4.51,"C[C@H](NC(=O)c1c[nH]c2ncc(C3=CCCCC3)nc12)C(C)(C)O [Example I-7, 2-Cyclohex-1-enyl-5H-pyrrolo[2,3-b]pyrazine-7-carboxylic acid ((S)-2-hydroxy-1,2-dimethyl-propyl)-amide]"
12,427,"C[C@H](NC(=O)c1c[nH]c2ncc(C3CC3)nc12)c1ccccc1 [Example I-67, 2-Cyclopropyl-5H-pyrrolo[2,3-b]pyrazine-7-carboxylic acid ((S)-1-phenyl-ethyl)-amide]"
13,15.2,"C[C@@H](NC(=O)c1c[nH]c2ncc(C3CC3)nc12)C1(O)CCCC1 [Example I-82, 2-Cyclopropyl-5H-pyrrolo[2,3-b]pyrazine-7-carboxylic acid [(R)-1-(1-hydroxy-cyclopentyl)-ethyl]-amide]"
14,35.1,"COC[C@H](NC(=O)c1c[nH]c2ncc(C3CC3)nc12)C(C)(C)C [Example I-64, 2-Cyclopropyl-5H-pyrrolo[2,3-b]pyrazine-7-carboxylic acid ((R)-1-methoxymethyl-2,2-dimethyl-propyl)-amide]"
15,75.4,"C[C@H](NC(=O)c1c[nH]c2ncc(-c3cn(-c4cccc(C(C)(C)C)c4)cn3)nc12)C(C)(C)C [Example I-153, 2-[1-(3-tert-Butyl-phenyl)-1H-imidazol-4-yl]-5H-pyrrolo[2,3-b]pyrazine-7-carboxylic acid ((S)-1,2,2-trimethyl-propyl)-amide]"
16,59.5,"CC[C@H](C)NC(=O)c1c[nH]c2ncc(Oc3ccccc3)nc12 [Example I-121, 2-Phenoxy-5H-pyrrolo[2,3-b]pyrazine-7-carboxylic acid ((S)-sec-butyl)-amide]"
17,1870,"CCNC(=O)c1c[nH]c2ncc(Oc3ccc4ccccc4c3)nc12 [Example I-262, 2-(Naphthalen-2-yloxy)-5H-pyrrolo[2,3-b]pyrazine-7-carboxylic acid ethylamide]"
18,1040,"CC(C)(CO)CNC(=O)c1c[nH]c2ncc(C(F)(F)F)nc12 [Example I-35, 2-Trifluoromethyl-5H-pyrrolo[2,3-b]pyrazine-7-carboxylic acid (3-hydroxy-2,2-dimethyl-propyl)-amide]"

row,IC50 [nM],Structure (SMILES)
1,0.6,"C[C@H](NC(=O)c1c[nH]c2ncc(-c3ccc(C(=O)NCc4c(F)cccc4Cl)s3)nc12)C(C)(C)C [Example I-189, 2-[5-(2-Chloro-6-fluoro-benzylcarbamoyl)-thiophen-2-yl]-5H-pyrrolo[2,3-b]pyrazine-7-carboxylic acid ((S)-1,2,2-trimethyl-propyl)-amide]"
2,229,"CC(C)NC(=O)c1c[nH]c2ncc(Oc3ccc4[nH]ccc4c3)nc12 [Example I-277, 2-(1H-Indol-5-yloxy)-5H-pyrrolo[2,3-b]pyrazine-7-carboxylic acid isopropylamide]"
3,61.3,"O=C(NCC1CCCCC1)c1c[nH]c2ncc(C3CC3)nc12 [Example I-107, 2-Cyclopropyl-5H-pyrrolo[2,3-b]pyrazine-7-carboxylic acid cyclohexylmethyl-amide]"
4,382,"CC(C)NC(=O)c1c[nH]c2ncc(Oc3ccccc3Cl)nc12 [Example I-255, 2-(2-Chloro-phenoxy)-5H-pyrrolo[2,3-b]pyrazine-7-carboxylic acid isopropylamide]"
5,0.24,"Cc1cc(-c2cnc3[nH]cc(C(=O)N[C@@H](C)C(C)(C)C)c3n2)sc1C(=O)NC1CCOCC1 [Example I-219, 2-[4-Methyl-5-(tetrahydro-pyran-4-ylcarbamoyl)-thiophen-2-yl]-5H-pyrrolo[2,3-b]pyrazine-7-carboxylic acid ((S)-1,2,2-trimethyl-propyl)-amide]"
6,3850,"CCc1ccccc1Oc1cnc2[nH]cc(C(=O)NC(C)C)c2n1 [Example I-238, 2-(2-Ethyl-phenoxy)-5H-pyrrolo[2,3-b]pyrazine-7-carboxylic acid isopropylamide]"
7,1530,"CCNC(=O)c1c[nH]c2ncc(Oc3ccc4c(c3)CCCC4)nc12 [Example I-260, 2-(5,6,7,8-Tetrahydro-naphthalen-2-yloxy)-5H-pyrrolo[2,3-b]pyrazine-7-carboxylic acid ethylamide]"
8,143,"CC(C)[C@@H](C)NC(=O)c1c[nH]c2ncc(Oc3ccc(F)cc3F)nc12 [Example I-127, 2-(2,4-Difluoro-phenoxy)-5H-pyrrolo[2,3-b]pyrazine-7-carboxylic acid ((R)-1,2-dimethyl-propyl)-amide]"
9,36.4,"CC[C@@](C)(O)[C@H](C)NC(=O)c1c[nH]c2ncc(C3CC3)nc12 [Example I-34, 2-Cyclopropyl-5H-pyrrolo[2,3-b]pyrazine-7-carboxylic acid ((1S,2R)-2-hydroxy-1,2-dimethyl-butyl)-amide]"
10,2.46,"C[C@H](NC(=O)c1c[nH]c2ncc(-c3cn(-c4cc(Cl)ccc4F)cn3)nc12)C(C)(C)C [Example I-147, 2-[1-(5-Chloro-2-fluoro-phenyl)-1H-imidazol-4-yl]-5H-pyrrolo[2,3-b]pyrazine-7-carboxylic acid ((S)-1,2,2-trimethyl-propyl)-amide]"
11,980,"CC(C)NC(=O)c1c[nH]c2ncc(Oc3cccc(C(C)C)c3)nc12 [Example I-234, 2-(3-Isopropyl-phenoxy)-5H-pyrrolo[2,3-b]pyrazine-7-carboxylic acid isopropylamide]"
12,4.08,"CCC(CC)NC(=O)c1c[nH]c2ncc(C3CC3)nc12 [Example I-26, 2-Cyclopropyl-5H-pyrrolo[2,3-b]pyrazine-7-carboxylic acid (1-ethyl-propyl)-amide]"
13,84.5,"CC(C)(O)C(CCO)NC(=O)c1c[nH]c2ncc(C3CC3)nc12 (stereo not drawn) [Example I-17, 2-Cyclopropyl-5H-pyrrolo[2,3-b]pyrazine-7-carboxylic acid [2-hydroxy-1-(2-hydroxy-ethyl)-2-methyl-propyl]-amide]"
14,3.4,"C[C@H](NC(=O)c1c[nH]c2ncc(C3CC3)nc12)C(C)(C)CS(C)(=O)=O [Example I-144, 2-Cyclopropyl-5H-pyrrolo[2,3-b]pyrazine-7-carboxylic acid ((S)-3-methanesulfonyl-1,2,2-trimethyl-propyl)-amide]"
15,1030,"CCNC(=O)c1c[nH]c2ncc(Oc3cccc(C)c3)nc12 [Example I-248, 2-m-Tolyloxy-5H-pyrrolo[2,3-b]pyrazine-7-carboxylic acid ethylamide]"
16,358,"CC(O)CCNC(=O)c1c[nH]c2ncc(C3CC3)nc12 (stereo not drawn) [Example I-68, 2-Cyclopropyl-5H-pyrrolo[2,3-b]pyrazine-7-carboxylic acid (3-hydroxy-butyl)-amide]"
17,22.9,"CC[C@H](C)NC(=O)c1c[nH]c2ncc(Oc3ccc4c(c3)[C@H](NC(C)=O)CC4)nc12 [Example I-296, 2-((R)-3-Acetylamino-indan-5-yloxy)-5H-pyrrolo[2,3-b]pyrazine-7-carboxylic acid ((S)-sec-butyl)-amide]"
18,0.55,"C[C@H](NC(=O)c1c[nH]c2ncc(-c3ccc(C(=O)N[C@H]4C[C@@H]4c4ccccc4)s3)nc12)C(C)(C)C [Example I-191, 2-[5-((1S,2R)-2-Phenyl-cyclopropyl-carbamoyl)-thiophen-2-yl]-5H-pyrrolo[2,3-b]pyrazine-7-carboxylic acid ((S)-1,2,2-trimethyl-propyl)-amide]"
